Data set [1] relates to Caco-2 cells. Put plainly: Permeability, Caco-2 assay. It is filed as in vitro ADME. Particulars: 37 °C; for Mean Papp A to B: Caco-2, pH 7.40, 2 hours. Here is the method:
Permeability of test compounds was determined in Caco-2 Assay. Caco-2 cells purchased from ATCC were seeded onto […] membranes (PET) in 96-well Corning Insert plates at 1×10^5 cells/cm^2, and refreshed medium every 4~5 days until to the 21st to 28th day for confluent cell monolayer formation. The transport buffer in the study was HBSS with 10.0 mM HEPES at pH 7.40±0.05. Test compound was tested at […] bi-directionally in duplicate. Digoxin was tested at 10.0 μM bi-directionally in duplicate, while nadolol and metoprolol were tested at 2.00 μM in A to B direction in duplicate. Final DMSO concentration was adjusted to less than 1%. The plate was incubated for 2 hours in CO2 incubator at 37±1° C., with 5% CO2 at saturated humidity without shaking. And all samples after mixed with acetonitrile containing internal standard were centrifuged at 3200×g for 10 min. For nadolol and metoprolol, 200 μL supernatant solution was diluted with 600 μL ultra-pure water for LC-MS/MS analysis. For digoxin and test compounds, 200 μL supernatant solution was diluted with 200 μL ultra-pure water for LC-MS/MS analysis. Concentrations of test and control compounds in starting solution, donor solution, and receiver solution were quantified by LC-MS/MS methodologies, using peak area ratio of analyte/internal standard. After transport assay, lucifer yellow rejection assay was applied to determine the Caco-2 cell monolayer integrity.
A general note: Passage across Caco-2 layers is used to estimate intestinal permeability.

Data set [2] can be described thus: Body weight change in PDX study in NCG mice. It is filed as in vivo. Conditions: P.O QD × 27; all mice. The text has this: Mice were assigned into groups using randomized block design based on their tumor volumes. The test article administration and the animal numbers in each study group are shown in the following experimental design table 5, the PDX model information are shown in the table 6.
For routine monitoring, all study animals were monitored for not only tumor growth but also behavior such as mobility, food, and water consumption (by cage side checking only), body weight (BW), eye/hair matting and any other abnormal effect. Any mortality and/or abnormal clinical signs were recorded.
Body weights of all animals were measured twice a week throughout the study. Body weight change, expressed in %, is calculated using the following formula: BWL (%)=(BWi−BW0)/BW0×100, BWi is the body weight, BW0 is the bodyweight on the first day of treatment.
The statistical software GraphPad Prism was used to analyze the difference in tumor volume and body weight between the treatment group and the vehicle control group. All the data is described as Mean±SEM, and one-way ANOVA analysis of variance was performed.

The test system of data set [3] is ER+/KAT6a^high ZR-75-1 breast cancer cell line. Put plainly: In vitro cytotoxicity in ER+/KAT6a^high ZR-75-1 breast cancer cell line (CTG assay, 14 days). It counts as cell-based, Human. The protocol: Single agent experiments (n=3 per each compound) were performed to obtain the IC10, IC25, IC50 and IC75 values for each drug to be used hereafter in the combo treatment.
The cytotoxicity was evaluated by CTG assay upon 14 days of treatment and stimulation with 1 nM E2. Statistical analysis was performed by 2 way ANOVA Tukey's multiple comparison test (* 0.01<p<0.05).
Human ER+/KAT6A^high breast cancer cell line ZR-75-1 (ATCC, Virginia, US) was cultured in RPMI 1640 medium (Gibco, Life Technologies, Carlsbad, CA, USA) supplemented with 10% fetal bovine serum (FBS)(Sigma, Saint Louis, CA, USA). All cells were incubated at 37° C., 5% CO2, 80-95% relative humidity.
Stock solutions were added at appropriate concentration in culture medium before the addition to cells.
For the cytotoxicity assay, cells were previously starved 48 h in RPMI 1640 no phenol red supplemented with 8% charcoal stripped FBS, and then seeded at appropriate density (2000 cells/well) in starvation media the day before starting the treatment. […] Concentration range was previously identified in single agent cytotoxic assay for the same time points in order to include in the combination experiment IC10, IC25, IC50 and IC75 values for each drug. After 14 days of treatment, CellTiter-Glo® 2.0 Cell Viability Assay (CTG)(Promega, Madison, WI, USA) was added to assess cell viability. Luminescence was measured 10 min later using Tecan Infinite M200 (Tecan Trading AG, Switzerland).

We go through 19 compounds from US20260294884A1 (Insilico Medicine IP Limited, priority 2023, published 2026).

The structures appear in SMILES notation. pIC50: −log10 of the molar value. Where two headings read alike, the source gives them in different places.

For orientation: pIC50 means −log10 of the IC50, conventionally taken in molar units. As usually defined, the IC25 is the concentration needed for an effect of 25%. Usually IC10 stands for the concentration needed for an effect of 10%. What is called IC75 is the concentration at which the effect reaches the 75% level.

For `COc1cccc(OC)c1S(=O)(=O)Nc1noc2cc(Oc3ccccn3)cc(OC)c12` [Compound 9, 2,6-dimethoxy-N-(4-methoxy-6-(pyridin-2-yloxy)benzo[d]isoxazol-3-yl)benzenesulfonamide], the “Mean Papp A to B” value in data set [1] is listed as 11.8 10^-6 cm/s. Same read-out and setting: next, `COc1ccccc1S(=O)(=O)Nc1noc2cc(Oc3nccs3)cc(OC)c12` [Compound 60, 2-methoxy-N-(4-methoxy-6-(thiazol-2-yloxy)benzo[d]isoxazol-3-yl)benzenesulfonamide]: 13.7 10^-6 cm/s; `COc1cccc(OC)c1S(=O)(=O)Nc1noc2cc(Cc3nccs3)c3c(c12)OCCC3` [Compound 47]: 3.53 10^-6 cm/s. Same read-out and setting: next, `COc1cccc(OC)c1S(=O)(=O)Nc1noc2cc(Oc3nccs3)cc(OC)c12` [Compound 59, 2,6-dimethoxy-N-(4-methoxy-6-(thiazol-2-yloxy)benzo[d]isoxazol-3-yl)benzenesulfonamide]: 6.20 10^-6 cm/s. On to `COc1cccc(OC)c1S(=O)(=O)Nc1noc2cc(Oc3ccccn3)c3c(c12)OCCC3` [Compound 24, 2,6-dimethoxy-N-(5-(pyridin-2-yloxy)-3,4-dihydro-2H-chromeno[8,7-d]isoxazol-9-yl)benzenesulfonamide], for which the “Efflux Ratio” value in data set [1] (Caco-2, bi-directional, pH 7.40, 2 hours) came out at 3.2. Further, the “Mean Papp A to B” value in data set [1] is listed as 12.9 10^-6 cm/s. Regarding `COc1ccccc1S(=O)(=O)Nc1noc2cc(Oc3nccs3)cc(OCF)c12` [Compound 56, N-(4-(fluoromethoxy)-6-(thiazol-2-yloxy)benzo[d]isoxazol-3-yl)-2-methoxybenzenesulfonamide], the “Mean Papp A to B” value in data set [1] is given as 5.28 10^-6 cm/s. `COc1ccccc1S(=O)(=O)Nc1noc2cc(Cn3cccn3)cc(OC)c12` [Compound 70]: in data set [2], the body weight entry is “maintained the body weight well”. On to `COc1ccccc1S(=O)(=O)Nc1noc2cc(Oc3nccs3)c3c(c12)OCCC3` [Compound 61, 2-methoxy-N-(5-(thiazol-2-yloxy)-3,4-dihydro-2H-chromeno[8,7-d]isoxazol-9-yl)benzenesulfonamide], for which the “Mean Papp A to B” value in data set [1] is 9.38 10^-6 cm/s. As for `COc1ccccc1S(=O)(=O)Nc1noc2cc(Oc3nccs3)c3c(c12)OCCCC3` [Compound 63], in data set [1], the “Mean Papp A to B” value is 6.48 10^-6 cm/s. On the same count and under the same terms, the figure for `COc1cccc(OC)c1S(=O)(=O)Nc1noc2cc(Oc3nccs3)c3c(c12)OCCCC3` [Compound 62, 2,6-dimethoxy-N-(6-(thiazol-2-yloxy)-2,3,4,5,9,10-hexahydrooxepino [3′,2′: 5,6]benzo[1,2-d]isoxazol-10-yl)benzenesulfonamide] is 10.6 10^-6 cm/s; for `COc1ccnc(OC)c1S(=O)(=O)Nc1noc2cc(Oc3ccccn3)c3c(c12)OCCC3` [Compound 28, 2,4-dimethoxy-N-(5-(pyridin-2-yloxy)-3,4-dihydro-2H-chromeno[8,7-d]isoxazol-9-yl)pyridine-3-sulfonamide] it is 2.38 10^-6 cm/s.

With `COc1cccc(OC)c1S(=O)(=O)Nc1noc2cc(Cn3cccn3)c3c(c12)OCCC3` [Compound 14, N-(5-((1H-pyrazol-1-yl)methyl)-3,4-dihydro-2H-chromeno[8,7-d]isoxazol-9-yl)-2,6-dimethoxybenzenesulfonamide], the “Mean Papp A to B” value in data set [1] is given as 0.439 10^-6 cm/s. On the same count and under the same terms, next, `COc1cccc(OC)c1S(=O)(=O)Nc1noc2cc(Cc3ccccn3)c3c(c12)OCCC3` [Compound 46, 2,6-dimethoxy-N-(5-(pyridin-2-ylmethyl)-3,4-dihydro-2H-chromeno[8,7-d]isoxazol-9-yl)benzenesulfonamide]: 2.66 10^-6 cm/s; `COc1cc(C)nc(OC)c1S(=O)(=O)Nc1noc2cc(Oc3nccs3)c3c(c12)OCCCC3` [Compound 64]: 9.00 10^-6 cm/s. Regarding `COc1cc(C)nc(OC)c1S(=O)(=O)Nc1noc2cc(Oc3nccs3)cc(OCF)c12` [Compound 55, N-(4-(fluoromethoxy)-6-(thiazol-2-yloxy)benzo[d]isoxazol-3-yl)-2,4-dimethoxy-6-methylpyridine-3-sulfonamide], in data set [1], the “Mean Papp A to B” value is 1.46 10^-6 cm/s.

In the case of `COc1cccc(OC)c1S(=O)(=O)Nc1noc2cc(Cn3cccn3)c3c(c12)OCCCC3` [Compound 19, N-(6-((1H-pyrazol-1-yl)methyl)-2,3,4,5,9,10-hexahydrooxepino [3′,2′: 5,6]benzo[1,2-d]isoxazol-10-yl)-2,6-dimethoxybenzenesulfonamide], the “Mean Papp A to B” value in data set [1] was 3.47 10^-6 cm/s.

As for `CCNCCc1ccc(CN(CC)c2cc(OC)ccc2[C@@H]2CCc3cc(O)ccc3C2)cc1` [elacestrant, reference compound], the pIC50 in data set [3] (elacestrant single agent, 1 nM E2, read-out: IC50 (cytotoxic action)) is 6.59; in data set [3] (single agent, 1 nM E2, read-out: IC50), 6.59. Also, the IC25 in data set [3] (elacestrant, 1 nM E2) was determined as 56 nM; in data set [3] (single agent, 1 nM E2) it was 56 nM. Besides, in data set [3] (single agent, 1 nM E2), the IC10 was determined as 10 nM. The IC75 in data set [3] (single agent, 1 nM E2, non clinically relevant dose) came to 1430 nM.

With `COc1cccc(OC)c1S(=O)(=O)Nc1noc2cc(Oc3ccccn3)cc(OC(F)F)c12` [Compound 22, N-(4-(difluoromethoxy)-6-(pyridin-2-yloxy)benzo[d]isoxazol-3-yl)-2,6-dimethoxybenzenesulfonamide], the “Mean Papp A to B” value in data set [1] is 3.45 10^-6 cm/s. Same read-out and setting: next, `COc1cccc(OC)c1S(=O)(=O)Nc1noc2cc(Oc3ccccn3)c3c(c12)OCC3` [Compound 23, 2,6-dimethoxy-N-(4-(pyridin-2-yloxy)-2,3-dihydrobenzofuro[7,6-d]isoxazol-8-yl)benzenesulfonamide]: 1.30 10^-6 cm/s.
